Data reported in ChEMBL document CHEMBL5303573, “Mapping human microbiome drug metabolism by gut bacteria and their genes” (Nature, 2019).

Experiments:
[1] = The drug is tested on Edwardsiella tarda strain: ATCC23685 for biotransformation. The drug concentrations were measured before and after a 12-h incubation by liquid-chromatography-coupled mass spectrometry (LC–MS); settings: 2 µM
[2] = bacteroides fragilis, 12 h, 2 µM
Description: The drug is tested on Bacteroides fragilis strain: 3397 (T10) for biotransformation. The drug concentrations were measured before and after a 12-h incubation by liquid-chromatography-coupled mass spectrometry (LC–MS)

[3] = bacteroides thetaiotaomicron, 12 h, 2 µM
Description: The drug is tested on Bacteroides thetaiotaomicron strain: VPI-5482 for biotransformation. The drug concentrations were measured before and after a 12-h incubation by liquid-chromatography-coupled mass spectrometry (LC–MS)

[4] = roseburia intestinalis, 12 h, 2 µM
Description: The drug is tested on Roseburia intestinalis strain: L1-82 for biotransformation. The drug concentrations were measured before and after a 12-h incubation by liquid-chromatography-coupled mass spectrometry (LC–MS)

[5] = victivallis vadensis, 12 h, 2 µM
Description: The drug is tested on Victivallis vadensis strain: ATCC BAA-548 for biotransformation. The drug concentrations were measured before and after a 12-h incubation by liquid-chromatography-coupled mass spectrometry (LC–MS)

[6] = The drug is tested on Bifidobacterium ruminantium strain: fecal isolate for biotransformation. The drug concentrations were measured before and after a 12-h incubation by liquid-chromatography-coupled mass spectrometry (LC–MS); settings: 2 µM
[7] = The drug is tested on Eggerthella lenta strain: ATCC25559 for biotransformation. The drug concentrations were measured before and after a 12-h incubation by liquid-chromatography-coupled mass spectrometry (LC–MS); settings: 2 µM

## COc1cc2nc(N3CCN(C(=O)C4COc5ccccc5O4)CC3)nc(N)c2cc1OC.CS(=O)(=O)O (configuration not stated) [DOXAZOSIN MESYLATE]
[1]
  Bacterial Biotransformation: Compound NOT metabolized
[2]
  Bacterial Biotransformation: Compound NOT metabolized
[3]
  Bacterial Biotransformation: Compound NOT metabolized
[4]
  Bacterial Biotransformation: Compound NOT metabolized
[5]
  Bacterial Biotransformation: Compound NOT metabolized

## CCN(CC)CCOC(=O)C(Cc1cccc2ccccc12)CC1CCCO1.O=C(O)C(=O)O (configuration not stated) [NAFRONYL OXALATE]
[6]
  Bacterial Biotransformation: Compound metabolized
[1]
  Bacterial Biotransformation: Compound NOT metabolized
[2]
  Bacterial Biotransformation: Compound NOT metabolized
[3]
  Bacterial Biotransformation: Compound NOT metabolized
[4]
  Bacterial Biotransformation: Compound NOT metabolized
[5]
  Bacterial Biotransformation: Compound NOT metabolized

## CC(C)(C)NC(=O)[C@H]1CC[C@H]2[C@@H]3CC[C@H]4NC(=O)C=C[C@]4(C)[C@H]3CC[C@]12C [FINASTERIDE]
[6]
  Bacterial Biotransformation: Compound NOT metabolized
[1]
  Bacterial Biotransformation: Compound NOT metabolized
[2]
  Bacterial Biotransformation: Compound NOT metabolized
[3]
  Bacterial Biotransformation: Compound NOT metabolized
[5]
  Bacterial Biotransformation: Compound NOT metabolized

## Cc1ccccc1N1C(=O)c2cc(S(N)(=O)=O)c(Cl)cc2NC1C (configuration not stated) [METOLAZONE]
[6]
  Bacterial Biotransformation: Compound NOT metabolized
[1]
  Bacterial Biotransformation: Compound NOT metabolized
[3]
  Bacterial Biotransformation: Compound NOT metabolized
[4]
  Bacterial Biotransformation: Compound NOT metabolized
[5]
  Bacterial Biotransformation: Compound NOT metabolized

## CN(C)C(=O)Oc1cccc([N+](C)(C)C)c1.[Br-] [NEOSTIGMINE BROMIDE]
[6]
  Bacterial Biotransformation: Compound NOT metabolized
[7]
  Bacterial Biotransformation: Compound NOT metabolized
[1]
  Bacterial Biotransformation: Compound NOT metabolized
[2]
  Bacterial Biotransformation: Compound metabolized
[3]
  Bacterial Biotransformation: Compound metabolized
[4]
  Bacterial Biotransformation: Compound NOT metabolized

## CCN(CC)CCOC(=O)C1(C2CCCCC2)CCCCC1 [DICYCLOMINE]
[7]
  Bacterial Biotransformation: Compound metabolized
[3]
  Bacterial Biotransformation: Compound NOT metabolized
[5]
  Bacterial Biotransformation: Compound NOT metabolized

## N#Cc1ccc(C(c2ccc(C#N)cc2)n2cncn2)cc1 [LETROZOLE]
[6]
  Bacterial Biotransformation: Compound NOT metabolized
[1]
  Bacterial Biotransformation: Compound NOT metabolized
[2]
  Bacterial Biotransformation: Compound NOT metabolized
[3]
  Bacterial Biotransformation: Compound NOT metabolized
[4]
  Bacterial Biotransformation: Compound NOT metabolized
[5]
  Bacterial Biotransformation: Compound NOT metabolized

## CC(=O)O[C@]1(C(C)=O)CC[C@H]2[C@@H]3C=C(Cl)C4=CC(=O)[C@@H]5C[C@@H]5[C@]4(C)[C@H]3CC[C@@]21C [CYPROTERONE ACETATE]
[6]
  Bacterial Biotransformation: Compound NOT metabolized
[1]
  Bacterial Biotransformation: Compound NOT metabolized
[4]
  Bacterial Biotransformation: Compound NOT metabolized
[5]
  Bacterial Biotransformation: Compound NOT metabolized

## CN1CCC(=C2c3ccccc3CC(=O)c3sccc32)CC1.O=C(O)/C=C/C(=O)O [KETOTIFEN FUMARATE]
[6]
  Bacterial Biotransformation: Compound NOT metabolized
[7]
  Bacterial Biotransformation: Compound NOT metabolized
[1]
  Bacterial Biotransformation: Compound NOT metabolized
[2]
  Bacterial Biotransformation: Compound NOT metabolized
[3]
  Bacterial Biotransformation: Compound NOT metabolized
[4]
  Bacterial Biotransformation: Compound NOT metabolized

## CN1CCN(C2=Nc3ccccc3Oc3ccc(Cl)cc32)CC1.O=C(O)CCC(=O)O [LOXAPINE SUCCINATE]
[7]
  Bacterial Biotransformation: Compound NOT metabolized
[2]
  Bacterial Biotransformation: Compound NOT metabolized
[3]
  Bacterial Biotransformation: Compound NOT metabolized
[4]
  Bacterial Biotransformation: Compound NOT metabolized
[5]
  Bacterial Biotransformation: Compound NOT metabolized

## Cc1cc2c(s1)Nc1ccccc1N=C2N1CCN(C)CC1 [OLANZAPINE]
[6]
  Bacterial Biotransformation: Compound NOT metabolized
[1]
  Bacterial Biotransformation: Compound NOT metabolized
[2]
  Bacterial Biotransformation: Compound metabolized
[4]
  Bacterial Biotransformation: Compound NOT metabolized
[5]
  Bacterial Biotransformation: Compound NOT metabolized

## O=c1[nH]c2ccccc2n1CCCN1CCC(n2c(=O)[nH]c3cc(Cl)ccc32)CC1 [DOMPERIDONE]
[6]
  Bacterial Biotransformation: Compound NOT metabolized
[1]
  Bacterial Biotransformation: Compound NOT metabolized
[2]
  Bacterial Biotransformation: Compound NOT metabolized
[3]
  Bacterial Biotransformation: Compound NOT metabolized
[4]
  Bacterial Biotransformation: Compound NOT metabolized
[5]
  Bacterial Biotransformation: Compound NOT metabolized

## Cc1cc2c(cc1S(N)(=O)=O)S(=O)(=O)CCC2
[6]
  Bacterial Biotransformation: Compound NOT metabolized
[1]
  Bacterial Biotransformation: Compound NOT metabolized
[2]
  Bacterial Biotransformation: Compound NOT metabolized
[3]
  Bacterial Biotransformation: Compound NOT metabolized
[4]
  Bacterial Biotransformation: Compound NOT metabolized
[5]
  Bacterial Biotransformation: Compound NOT metabolized

## COc1ccc(Cc2nccc3cc(OC)c(OC)cc23)cc1OC [PAPAVERINE]
[6]
  Bacterial Biotransformation: Compound NOT metabolized
[7]
  Bacterial Biotransformation: Compound NOT metabolized
[1]
  Bacterial Biotransformation: Compound NOT metabolized
[2]
  Bacterial Biotransformation: Compound NOT metabolized
[3]
  Bacterial Biotransformation: Compound NOT metabolized
[4]
  Bacterial Biotransformation: Compound NOT metabolized

## COC(=O)C1=C(C)NC(C)=C(C(=O)OC(C)C)C1c1cccc2nonc12 (configuration not stated) [ISRADIPINE]
[6]
  Bacterial Biotransformation: Compound NOT metabolized
[7]
  Bacterial Biotransformation: Compound NOT metabolized
[1]
  Bacterial Biotransformation: Compound NOT metabolized
[2]
  Bacterial Biotransformation: Compound NOT metabolized
[3]
  Bacterial Biotransformation: Compound NOT metabolized
[4]
  Bacterial Biotransformation: Compound NOT metabolized

## CN(C)CCOC(C)(c1ccccc1)c1ccccn1.O=C(O)CCC(=O)O (configuration not stated) [DOXYLAMINE SUCCINATE]
[1]
  Bacterial Biotransformation: Compound NOT metabolized
[2]
  Bacterial Biotransformation: Compound NOT metabolized
[3]
  Bacterial Biotransformation: Compound NOT metabolized
[4]
  Bacterial Biotransformation: Compound NOT metabolized
[5]
  Bacterial Biotransformation: Compound NOT metabolized

## Cc1nc(Nc2ncc(C(=O)Nc3c(C)cccc3Cl)s2)cc(N2CCN(CCO)CC2)n1.O [DASATINIB]
[6]
  Bacterial Biotransformation: Compound metabolized
[7]
  Bacterial Biotransformation: Compound NOT metabolized
[2]
  Bacterial Biotransformation: Compound metabolized
[3]
  Bacterial Biotransformation: Compound NOT metabolized
[5]
  Bacterial Biotransformation: Compound NOT metabolized

## CC1OC(OC2C(O)CC(OC3C(O)CC(OC4CCC5(C)C(CCC6C5CCC5(C)C(C7=CC(=O)OC7)CCC65O)C4)OC3C)OC2C)CC(O)C1O (configuration not stated)
[1]
  Bacterial Biotransformation: Compound NOT metabolized
[2]
  Bacterial Biotransformation: Compound metabolized
[3]
  Bacterial Biotransformation: Compound metabolized
[4]
  Bacterial Biotransformation: Compound NOT metabolized
[5]
  Bacterial Biotransformation: Compound NOT metabolized

## CCOC(=O)[C@H](CCc1ccccc1)N[C@@H](C)C(=O)N1CCC[C@H]1C(=O)O.O=C(O)/C=C\C(=O)O [ENALAPRIL MALEATE]
[6]
  Bacterial Biotransformation: Compound NOT metabolized
[1]
  Bacterial Biotransformation: Compound NOT metabolized
[2]
  Bacterial Biotransformation: Compound NOT metabolized
[4]
  Bacterial Biotransformation: Compound NOT metabolized
[5]
  Bacterial Biotransformation: Compound NOT metabolized

## CC(=O)OCC(=O)[C@@]1(OC(C)=O)[C@@H](C)C[C@H]2[C@@H]3C[C@H](F)C4=CC(=O)C=C[C@]4(C)[C@@]3(F)[C@@H](O)C[C@@]21C [DIFLORASONE DIACETATE]
[6]
  Bacterial Biotransformation: Compound metabolized
[1]
  Bacterial Biotransformation: Compound NOT metabolized
[2]
  Bacterial Biotransformation: Compound metabolized
[3]
  Bacterial Biotransformation: Compound metabolized
[4]
  Bacterial Biotransformation: Compound metabolized
[5]
  Bacterial Biotransformation: Compound metabolized

## CCN(CC)CCNC(=O)c1cc(Cl)c(N)cc1OC [METOCLOPRAMIDE]
[6]
  Bacterial Biotransformation: Compound NOT metabolized
[7]
  Bacterial Biotransformation: Compound NOT metabolized
[1]
  Bacterial Biotransformation: Compound NOT metabolized
[2]
  Bacterial Biotransformation: Compound NOT metabolized
[3]
  Bacterial Biotransformation: Compound NOT metabolized
[4]
  Bacterial Biotransformation: Compound NOT metabolized
